In patent US7649012B2, “Compounds, pharmaceutical compositions containing same, and methods of use for same” (FASgen, Inc., priority 2002, dated 2010):
Converted amounts (≈) assume the structure as drawn. Like-named read-outs stand apart in the source and are kept apart here.

Legend:
Assay type in all cases: cell-based
[1] = tested on: MCF-7 human breast cancer cells; assay: XTT cytotoxicity assay; settings: MCF7, MCF-7, 72 hours, some cells marked (M)
Method: The XTT assay is a non-radioactive alternative for the [^51 Cr] release cytotoxicity assay. XTT is a tetrazolium salt that is reduced to a formazan dye only by metabolically active, viable cells. The reduction of XTT is measured spectrophotometrically as OD490-OD650.
To measure the cytotoxicity of specific compounds against cancer cells, 9×10^3 MCF-7 human breast cancer cells, obtained from the American Type Culture Collection are plated per well in 96 well plates in DMEM medium with 10% fetal bovine serum, insulin, penicillin, and streptomycin. Following overnight culture at 37° C. and 5% CO2, the compounds to be tested, dissolved in DMSO, are added to the wells in 1 μl volume at the following concentrations: 80, 40, 20, 10, 5, 2.5, 1.25, and 0.625 μg/ml in triplicate. Additional concentrations are tested if required. 1 μl of DMSO is added to triplicate wells are the vehicle control. C75 is run at 40, 20, […], and 5 μg/ml in triplicate as positive controls. After 72 hours of incubation, cells are incubated for 4 hours with the XTT reagent as per manufacturer's instructions (Cell Proliferation Kit II (XTT) Roche). Plates are read at OD490 and OD650 on a Molecular Devices SpectraMax Plus Spectrophotometer. Three wells containing the XTT reagent without cells serve as the plate blank. XTT data are reported as OD490-OD650-Averages and standard error of the mean are computed using SOFTmax Pro software (Molecular Dynamics).
The IC50 for the compounds is defined as the concentration of drug leading to a 50% reduction in OD490-OD650 compared to controls. The OD490-OD650 are computed by the SOFTmax PRO software (Molecular Devices) for each compound concentration. IC50 is calculated by linear regression, plotting the FAS activity as percent of control versus drug concentrations. Linear regression, best-fit line, r^2, and 95% confidence intervals are determined using Prism Version 3.0 (Graph Pad Software).

[2] = tested on: MCF-7 human breast cancer cells; assay: Crystal violet cell growth assay; settings: MCF7, MCF-7, 72 hours, read-out: Cr. Violet(IC50)
Method: The crystal violet assay measure cell growth but not cytotoxicity. This assay employs crystal violet staining of fixed cells in 96-well plates with subsequent solubilization and measurement of OD490 on a spectrophotometer. The OD490 corresponds to cell growth per unit time measured. Cells are treated with the compounds of interest or vehicle controls and IC50 for each compound is computed.
To measure the cytotoxicity of specific compounds against cancer cells, 5×10^4 MCF-7 human breast cancer cells, obtained from the American Type Culture Collection are plated per well in 24 well plates in DMEM medium with 10% fetal bovine serum, penicillin, and streptomycin. Following overnight culture at 37° C. and 5% CO2, the compounds to be tested, dissolved in DMSO, are added to the wells in 1 μl volume at the following concentrations: 50, 40, 30, 20, and 10 μg/ml in triplicate. Additional concentrations are tested if required. 1 μl of DMSO is added to triplicate wells are the vehicle control. C75 is run at 10, and 5 μg/ml in triplicate as positive controls.
After 72 hours of incubation, cells are stained with 0.5 ml of Crystal Violet stain (0.5% in 25% methanol) in each well. After 10 minutes, wells are rinsed, air dried, and then solubilized with 0.5 ml 10% sodium dodecylsulfate with shaking for 2 hours.

[3] = tested on: Enterococcus faecalis (ATCC # 29212); assay: Broth microdilution MIC; settings: for MIC: Enterococcus faecalis, ATCC29212
Method: (§1) A broth microdilution assay is used to assess the antimicrobial activity of the compounds. […] Microorganisms tested include Staphylococcus aureus (ATCC # 29213), Enterococcus faecalis (ATCC # 29212), Pseudomonas aeruginosa (ATCC # 27853), and Escherichia coli (ATCC # 25922). The assay is performed in two growth media, Mueller Hinton Broth and Trypticase Soy Broth. […] Colonies are suspended in sterile broth so that the turbidity matches the turbidity of a 0.5 McFarland standard. The inoculum is diluted 1:10 in sterile broth (Mueller Hinton or Trypticase soy) and 195 ul is dispensed per well of a 96-well plate. The compounds to be tested, dissolved in DMSO, are added to the wells in 5 ul volume at the following concentrations: 25, 12.5, 6.25, 3.125, 1.56 and 0.78 ug/ml in duplicate. Additional concentrations are tested if required. 5 ul of DMSO added to duplicate wells are the vehicle control. Serial dilutions of positive control compounds, vancomycin (E. faecalis and S. aureus) and tobramycin (E. coli and P. aeruginosa), are included in each run. After 24 hours of incubation at 37° C., plates are read at OD600 on a Molecular Devices SpectraMax Plus Spectrophotometer. Average OD600 values are computed using SOFTmax Pro Software (Molecular Devices) and MIC values are determined by linear regression analysis using Prism version 3.02 (Graph Pad Software, San Diego).

[4] = tested on: Escherichia coli (ATCC # 25922); assay: Broth microdilution MIC; settings: for MIC: Escherichia coli, ATCC25922
Method: as §1

[5] = tested on: Pseudomonas aeruginosa (ATCC # 27853); assay: Broth microdilution MIC; settings: for PSAE/MH(MIC): Mueller Hinton Broth; for PSAE/Tsoy(MIC): Trypticase Soy Broth
Method: as §1

[6] = tested on: Staphylococcus aureus (ATCC # 29213); assay: Broth microdilution MIC; settings: for MIC: Staphylococcus aureus, ATCC29213
Method: as §1

[7] = Mueller Hinton Broth, read-out: EF/MH(MIC)
[8] = Trypticase Soy Broth, read-out: Ecoli/Tsoy(MIC)
[9] = Trypticase Soy Broth, read-out: SA/Tsoy(MIC)
[10] = Mueller Hinton Broth, read-out: SA/MH(MIC)
[11] = Trypticase Soy Broth, read-out: EF/Tsoy(MIC)

| Structure (SMILES) | IC50 [2] [µg/mL] | MIC [3, 7] [µg/mL] | EF/Tsoy(MIC) ([3]; Trypticase Soy Broth) | MIC [4, 8] [µg/mL] | Ecoli/MH(MIC) ([4]; Mueller Hinton Broth) | PSAE/MH(MIC) [5] | PSAE/Tsoy(MIC) [5] | SA/MH(MIC) ([6]; Mueller Hinton Broth) | MIC [6, 9] [µg/mL] | EF/MH(MIC) ([3]; Mueller Hinton Broth) | MIC ([4]; Mueller Hinton Broth, read-out: Ecoli/MH(MIC)) [µg/mL] | Ecoli/Tsoy(MIC) ([4]; Trypticase Soy Broth) | MIC [6, 10] [µg/mL] | MIC [3, 11] [µg/mL] | IC50 [1] [µg/mL] |
| --- | --- | --- | --- | --- | --- | --- | --- | --- | --- | --- | --- | --- | --- | --- | --- |
| CCCCCC[C@@]1(C)SC(=O)C=C1OCC(=O)NCC(=O)OC (racemic) | 32.5 ± 11.7 (≈ 94.6 µM) | – | Neg | – | – | Neg | Neg | – | 111 (≈ 323 µM) | Neg | 156 (≈ 454 µM) | Neg | 69 (≈ 201 µM) | – | 40.5 ± 5.1 (≈ 118 µM) |
| CCCCCC[C@@]1(C)SC(=O)C=C1OCCCCCl (racemic) | 16.3 (≈ 53.5 µM) | 117 (≈ 384 µM) | – | – | Neg | Neg | Neg | – | 50 (≈ 164 µM) | – | – | Neg | 164 (≈ 538 µM) | 165 (≈ 541 µM) | 20.8 ± 0.9 (≈ 68.2 µM) |
| CCCCCCCC[C@@]1(C)SC(=O)C=C1OCC(=O)O | 33.7 (≈ 112 µM) | 77 (≈ 256 µM) | – | – | Neg | Neg | Neg | – | 60 (≈ 200 µM) | – | – | Neg | 98 (≈ 326 µM) | 164 (≈ 546 µM) | 50.3 ± 2.8 (≈ 167 µM) |
| CCCCCC[C@@]1(C)SC(=O)C=C1OCC(=O)NCCCBr (racemic) | 12.6 ± 3.7 (≈ 32.1 µM) | 99 (≈ 252 µM) | – | 293 (≈ 747 µM) | Neg | Neg | Neg | – | 237 (≈ 604 µM) | – | – | – | 147 (≈ 375 µM) | 121 (≈ 308 µM) | 21.2 ± 1.1 (≈ 54 µM) |
| CCCCCCCCC1(C)SC(=O)C(C(C)O)=C1O (stereo not drawn) | 19.5 (≈ 68.1 µM) | 66 (≈ 230 µM) | – | – | Neg | Neg | Neg | – | 12 ± 0.5 (≈ 41.9 µM) | – | – | Neg | 53.1 ± 0.5 (≈ 185 µM) | 21 (≈ 73.3 µM) | 23.9 ± 2.9 (≈ 83.4 µM) |

Continued by falling MIC [6, 9], values first:

| IC50 [2] [µg/mL] | MIC [3, 7] [µg/mL] | EF/Tsoy(MIC) ([3]; Trypticase Soy Broth) | MIC [4, 8] [µg/mL] | Ecoli/MH(MIC) ([4]; Mueller Hinton Broth) | PSAE/MH(MIC) [5] | PSAE/Tsoy(MIC) [5] | SA/MH(MIC) ([6]; Mueller Hinton Broth) | MIC [6, 9] [µg/mL] | EF/MH(MIC) ([3]; Mueller Hinton Broth) | MIC ([4]; Mueller Hinton Broth, read-out: Ecoli/MH(MIC)) [µg/mL] | Ecoli/Tsoy(MIC) ([4]; Trypticase Soy Broth) | MIC [6, 10] [µg/mL] | MIC [3, 11] [µg/mL] | Structure (SMILES) | IC50 [1] [µg/mL] |
| --- | --- | --- | --- | --- | --- | --- | --- | --- | --- | --- | --- | --- | --- | --- | --- |
| 10.3 ± 0.3 (≈ 30.9 µM) | 64 (≈ 192 µM) | Neg | – | Neg | Neg | Neg | – | 134 (≈ 402 µM) | – | – | Neg | 115 (≈ 345 µM) | – | CCCCCCCC[C@@]1(C)SC(=O)C=C1OCCCCCl (racemic) | 35.3 ± 2.2 (≈ 106 µM) |
| 17 (≈ 56.6 µM) | 21.3 (≈ 70.9 µM) | Neg | 281 (≈ 935 µM) | Neg | Neg | Neg | Neg | 129 (≈ 429 µM) | – | – | – | – | – | CCCCCC[C@@]1(C)SC(=O)C=C1OCC(=O)OCC (racemic) | 39.6 ± 2.2 (≈ 132 µM) |
| 38.6 (≈ 129 µM) | 102 (≈ 342 µM) | – | – | Neg | Neg | Neg | – | 62 (≈ 208 µM) | – | – | Neg | 88 (≈ 295 µM) | 147 (≈ 493 µM) | CCCCCCCC[C@@]1(C)SC(=O)C=C1OC(=O)CC (racemic) | 26.8 ± 0.6 (≈ 89.8 µM) |
| 22.5 (≈ 68.7 µM) | 60 (≈ 183 µM) | – | – | Neg | Neg | Neg | – | 39 (≈ 119 µM) | – | – | Neg | 32 (≈ 97.7 µM) | 64 (≈ 195 µM) | CCCCCCCC[C@@]1(C)SC(=O)C=C1OC(=O)NC(C)C (racemic) | 45.7 ± 25.9 (≈ 140 µM) |
